Tests used:
[1] = Light Stability of crystalline form A; assay type: physicochemical; conditions: light 4500+/−500 Lux
Experimental: (§1) A layer of crystalline form A having a thickness of less than 5 mm was place in a flat weighing bottle. […] Samples were taken out at 6 days, 11 days and 16 days and examined for purity by HPLC, appearance and crystalline form. The conditions for the HPLC measurements are as shown below. • Instrument: Agilent 1200HPLC • Column: Agilent Eclipse XDB-C18 4.6*150 mm, 5 μm • Detection wavelength: 254 nm • Mobile phase: A phase 10 mM ammonium acetate (pH=3.5) and B phase acetonitrile [table]

[2] = Thermal Stability of crystalline form A; assay type: physicochemical
Experimental: as §1

[3] = 0 day (initial sample, before stress)

Appearance ([1]; 6 days): Light yellow | Crystalline form ([1]; 6 days): Form A | RT* (min.) 2.39 (HPLC peak) ([1]; 6 days): 0.01% | RT* (min.) 2.89 (HPLC peak) ([1]; 6 days): 0.09% | RT* (min.) 3.9 (HPLC peak) ([1]; 6 days): 0.32% | RT* (min.) 13.2 (azilsartan peak, purity by HPLC) ([1]; 6 days): 99.45% | RT* (min.) 22.8 (HPLC peak) ([1]; 6 days): 0.04% | RT* (min.) 23.6 (HPLC peak) ([1]; 6 days): 0.01% | RT* (min.) 27.5 (HPLC peak) ([1]; 6 days): 0.06% | RT* (min.) 30.66 (HPLC peak) ([1]; 6 days): 0.02% | Appearance ([1]; 11 days): Light yellow | Crystalline form ([1]; 11 days): Form A | RT* (min.) 2.39 (HPLC peak) ([1]; 11 days): 0.04% | RT* (min.) 2.89 (HPLC peak) ([1]; 11 days): 0.14% | RT* (min.) 3.9 (HPLC peak) ([1]; 11 days): 0.61% | RT* (min.) 5.79 (HPLC peak) ([1]; 11 days): 0.02 | RT* (min.) 13.2 (azilsartan peak, purity by HPLC) ([1]; 11 days): 98.71% | RT* (min.) 20.55 (HPLC peak) ([1]; 11 days): 0.07% | RT* (min.) 22.8 (HPLC peak) ([1]; 11 days): 0.06% | RT* (min.) 23.6 (HPLC peak) ([1]; 11 days): 0.03% | RT* (min.) 26.96 (HPLC peak) ([1]; 11 days): 0.01% | RT* (min.) 27.5 (HPLC peak) ([1]; 11 days): 0.29% | RT* (min.) 28.81 (HPLC peak) ([1]; 11 days): 0.01% | RT* (min.) 30.66 (HPLC peak) ([1]; 11 days): 0.03% | Appearance ([1]; 16 days): Light yellow | Crystalline form ([1]; 16 days): Form A | RT* (min.) 2.39 (HPLC peak) ([1]; 16 days): 0.05% | RT* (min.) 2.89 (HPLC peak) ([1]; 16 days): 0.22% | RT* (min.) 3.9 (HPLC peak) ([1]; 16 days): 0.34% | RT* (min.) 13.2 (azilsartan peak, purity by HPLC) ([1]; 16 days): 99.24% | RT* (min.) 22.8 (HPLC peak) ([1]; 16 days): 0.04% | RT* (min.) 23.6 (HPLC peak) ([1]; 16 days): 0.01% | RT* (min.) 27.5 (HPLC peak) ([1]; 16 days): 0.09% | Appearance [2, 3]: White or off- | Crystalline form [2, 3]: Form A | RT* (min.) 2.89 (HPLC peak) [2, 3]: 0.01% | RT* (min.) 3.9 (HPLC peak) [2, 3]: 0.32% | RT* (min.) 13.2 (azilsartan peak, purity by HPLC) [2, 3]: 99.51% | RT* (min.) 22.8 (HPLC peak) [2, 3]: 0.04% | RT* (min.) 23.6 (HPLC peak) [2, 3]: 0.01% | RT* (min.) 27.5 (HPLC peak) [2, 3]: 0.06% | RT* (min.) 30.66 (HPLC peak) [2, 3]: 0.02% | Appearance ([2]; 60° C., 6 days): White or off- | Crystalline form ([2]; 60° C., 6 days): Form A | RT* (min.) 2.89 (HPLC peak) ([2]; 60° C., 6 days): 0.02% | RT* (min.) 3.9 (HPLC peak) ([2]; 60° C., 6 days): 0.33% | RT* (min.) 5.79 (HPLC peak) ([2]; 60° C., 6 days): 0.01% | RT* (min.) 13.2 (azilsartan peak, purity by HPLC) ([2]; 60° C., 6 days): 99.47% | RT* (min.) 20.55 (HPLC peak) ([2]; 60° C., 6 days): 0.01% | RT* (min.) 22.8 (HPLC peak) ([2]; 60° C., 6 days): 0.04% | RT* (min.) 23.6 (HPLC peak) ([2]; 60° C., 6 days): 0.02% | RT* (min.) 26.96 (HPLC peak) ([2]; 60° C., 6 days): 0.01% | RT* (min.) 27.5 (HPLC peak) ([2]; 60° C., 6 days): 0.06% | RT* (min.) 28.81 (HPLC peak) ([2]; 60° C., 6 days): 0.01% | RT* (min.) 30.66 (HPLC peak) ([2]; 60° C., 6 days): 0.03%
SMILES: CCOc1nc2cccc(C(=O)O)c2n1Cc1ccc(-c2ccccc2-c2noc(=O)[nH]2)cc1 [Form A]
RT* (min.) 5.79 (HPLC peak) ([1]; 6 days): — (“—” refers to the peak area is less than 3000 or there is no peak) | RT* (min.) 20.55 (HPLC peak) ([1]; 6 days): — (“—” refers to the peak area is less than 3000 or there is no peak) | RT* (min.) 26.96 (HPLC peak) ([1]; 6 days): — (“—” refers to the peak area is less than 3000 or there is no peak) | RT* (min.) 28.81 (HPLC peak) ([1]; 6 days): — (“—” refers to the peak area is less than 3000 or there is no peak) | RT* (min.) 5.79 (HPLC peak) ([1]; 16 days): — (“—” refers to the peak area is less than 3000 or there is no peak) | RT* (min.) 20.55 (HPLC peak) ([1]; 16 days): — (“—” refers to the peak area is less than 3000 or there is no peak) | RT* (min.) 26.96 (HPLC peak) ([1]; 16 days): — (“—” refers to the peak area is less than 3000 or there is no peak) | RT* (min.) 28.81 (HPLC peak) ([1]; 16 days): — (“—” refers to the peak area is less than 3000 or there is no peak) | RT* (min.) 30.66 (HPLC peak) ([1]; 16 days): — (“—” refers to the peak area is less than 3000 or there is no peak) | RT* (min.) 2.39 (HPLC peak) [2, 3]: — (“—” refers to the peak area is less than 3000 or there is no peak) | RT* (min.) 5.79 (HPLC peak) [2, 3]: — (“—” refers to the peak area is less than 3000 or there is no peak) | RT* (min.) 20.55 (HPLC peak) [2, 3]: — (“—” refers to the peak area is less than 3000 or there is no peak) | RT* (min.) 26.96 (HPLC peak) [2, 3]: — (“—” refers to the peak area is less than 3000 or there is no peak) | RT* (min.) 28.81 (HPLC peak) [2, 3]: — (“—” refers to the peak area is less than 3000 or there is no peak) | RT* (min.) 2.39 (HPLC peak) ([2]; 60° C., 6 days): — (“—” refers to the peak area is less than 3000 or there is no peak)

From US9174973B2, “Crystalline forms of azilsartan and preparation and uses thereof” (SUNSHINE LAKE PHARMA CO., LTD., priority 2011, dated 2015)
